Test results published in paper PMC3576085 (The Journal of Biological Chemistry, 2012).

Biological target: T1, CBM65B (EcCel5A) ([Eubacterium] cellulosolvens, UniProt Q3LHN3)
T1 sequence (Q3LHN3 581-713): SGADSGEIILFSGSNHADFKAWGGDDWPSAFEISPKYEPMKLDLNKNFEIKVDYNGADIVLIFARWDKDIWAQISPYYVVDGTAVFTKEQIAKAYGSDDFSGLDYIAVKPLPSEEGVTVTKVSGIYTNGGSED
Test: ITC
Assay type: binding
Settings: 50 mM Na-HEPES pH 7.5, 25 °C; n 1

In the case of `OC[C@H]1O[C@@H](O[C@H]2[C@H](O)[C@@H](O)[C@H](O[C@H]3[C@H](O)[C@@H](O)[C@H](O[C@H]4[C@H](O)[C@@H](O)[C@H](O[C@H]5[C@H](O)[C@@H](O)[C@H](O[C@H]6[C@H](O)[C@@H](O)C(O)O[C@@H]6CO)O[C@@H]5CO)O[C@@H]4CO)O[C@@H]3CO)O[C@@H]2CO)[C@H](O)[C@@H](O)[C@@H]1O` (stereo partly shown) [C6, cellohexaose], the Ka is reported as 2.3 (±0.2) x 10^3.
